IC50 data for 15 compounds are collected here from US20240360178A1, “MACROCYCLIC IMMUNOMODULATORS” (Bristol-Myers Squibb Company, priority 2021, published 2024).

Positions of bridges follow the written chain, without caps; N, C: chain ends. Non-standard residues stand in square brackets, D forms with d. Residues, ends and D or L forms follow the SMILES beside them. *: point of attachment. Phe(4-COOH) = N[C@@H](Cc1ccc(C(=O)O)cc1)C(=O)O; Bip = N[C@@H](Cc1ccc(-c2ccccc2)cc1)C(=O)O; Phe(3-OMe) = COc1cccc(C[C@H](N)C(=O)O)c1; NMeF = CN[C@@H](Cc1ccccc1)C(=O)O; 4Pal = N[C@@H](Cc1ccncc1)C(=O)O; Cha = N[C@@H](CC1CCCCC1)C(=O)O; Tle = CC(C)(C)[C@H](N)C(=O)O; Carboxymethyl = O=C(O)C*; NMeA = CN[C@@H](C)C(=O)O; Nle = CCCC[C@H](N)C(=O)O; Orn = NCCC[C@H](N)C(=O)O; Dab = NCC[C@H](N)C(=O)O; Dap = NC[C@H](N)C(=O)O; Ac3c = NC1(C(=O)O)CC1; Sar = CNCC(=O)O

In this test the target is T1, human PD-1 (Jurkat-PD-1 cells) / PE-labeled human PD-L1-Ig (Homo sapiens, UniProt Q15116).
T1 construct: expressed in transfected cells; host or cells: Jurkat cell line over-expressing human PD-1
Description: Jurkat-PD-1 Cell Binding High-Content Screening Assay (CBA); Jurkat hPD1-PDL1 assay. The following applies: Jurkat cell line over-expressing human PD-1; PE-labeled PD-L1-Ig 20 nM final; compound incubated 2 hours at 37° C.; read-out: Jurkat HPD1-PDL1 IC50. The gist of the method: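 Cell binding by imaging: Jurkat line stably over-expressing human PD-1, compound pre-exposure 2 h at 37° C, PE-conjugated PD-L1-Ig 20 nM final, medium DMEM containing 10% FCS.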

T1 sequence (Q15116 25-288): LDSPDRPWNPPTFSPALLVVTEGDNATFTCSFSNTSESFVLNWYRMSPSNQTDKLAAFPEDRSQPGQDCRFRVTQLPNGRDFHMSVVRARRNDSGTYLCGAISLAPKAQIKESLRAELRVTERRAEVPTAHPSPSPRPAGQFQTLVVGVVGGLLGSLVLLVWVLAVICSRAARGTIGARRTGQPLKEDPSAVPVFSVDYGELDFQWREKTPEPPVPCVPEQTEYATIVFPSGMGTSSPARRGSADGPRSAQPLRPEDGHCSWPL

For `CC(C)C[C@@H]1NC(=O)[C@H](CC(N)=O)NC(=O)[C@H]2CCCN2C(=O)[C@H](C)N(C)C(=O)[C@H](C(C)C)NC(=O)[C@H](Cc2ccc(-c3ccccc3)cc2)NC(=O)[C@@H](CC(C)C)NC(=O)[C@H](Cc2c[nH]c3ccccc23)NC(=O)[C@H](CC(=O)O)NC(=O)[C@H](Cc2ccc(C(=O)O)cc2)NC(=O)[C@H](Cc2ccncc2)NC(=O)CSC[C@@H](C(=O)N[C@@H](C)C(N)=O)NC(=O)[C@@H](CO)NC(=O)[C@H](C(C)C)NC1=O` [Example 1389] ({CH2CO}-[4Pal][Phe(4-COOH)]DW[dL][Bip]V[NMeA][dP]NLV[dS]CA-NH2; thioether N-14), the IC50 turned out to be 50 nM.

For `CC(C)C[C@@H]1NC(=O)[C@H](CCCNC(=N)N)NC(=O)[C@H](Cc2ccccc2)N(C)C(=O)[C@H](C)N(C)C(=O)[C@H](CCCNC(=N)N)NC(=O)[C@H](Cc2ccc(-c3ccccc3)cc2)NC(=O)[C@H](C(C)C)NC(=O)[C@H](Cc2c[nH]c3ccccc23)NC(=O)[C@H](CC(=O)O)NC(=O)[C@H](Cc2ccc(O)cc2)NC(=O)CNC(=O)CSC[C@@H](C(=O)NCC(N)=O)NC(=O)[C@H](CO)NC(=O)[C@H](C(C)C)NC1=O` [Example 1258] ({CH2CO}-GYDWV[Bip]R[NMeA][NMeF]RLVSCG-NH2; thioether N-14), the IC50 is 240 nM. The same measure for `CCCC[C@@H]1NC(=O)[C@H](C(C)C)NC(=O)[C@H](Cc2ccccc2)N(C)C(=O)[C@H](CC(=O)O)NC(=O)[C@H](CCC(=O)O)NC(=O)[C@H](Cc2ccc(-c3ccccc3)cc2)NC(=O)[C@H](C(C)C)NC(=O)[C@H](Cc2c[nH]c3ccccc23)NC(=O)[C@H](CC(=O)O)NC(=O)[C@H](Cc2ccc(O)cc2)NC(=O)[C@H](Cc2ccccc2)NC(=O)CSC[C@@H](C(=O)NCC(N)=O)NC(=O)[C@H](CCCNC(=N)N)NC(=O)[C@H](C(C)C)NC1=O` [Example 1191] ({CH2CO}-FYDWV[Bip]ED[NMeF]V[Nle]VRCG-NH2; thioether N-14): 690 nM; for `CC(C)C[C@@H]1NC(=O)[C@H](CCCNC(=N)N)NC(=O)[C@H](Cc2ccccc2)N(C)C(=O)[C@H](C)N(C)C(=O)[C@H](CCCNC(=N)N)NC(=O)[C@H](Cc2ccc(-c3ccccc3)cc2)NC(=O)[C@H](C(C)C)NC(=O)[C@H](Cc2c[nH]c3ccccc23)NC(=O)[C@H](CC(=O)O)NC(=O)[C@H](Cc2ccc(C(=O)O)cc2)NC(=O)[C@H](Cc2cnc[nH]2)NC(=O)CSC[C@@H](C(=O)NCC(N)=O)NC(=O)[C@H](CO)NC(=O)[C@H](C(C)C)NC1=O` [Example 1291] ({CH2CO}-H[Phe(4-COOH)]DWV[Bip]R[NMeA][NMeF]RLVSCG-NH2; thioether N-14): 90 nM; for `CC(C)C[C@@H]1NC(=O)[C@H](CCCNC(=N)N)NC(=O)[C@H](Cc2ccccc2)N(C)C(=O)[C@H](C)N(C)C(=O)[C@H](CCCNC(=N)N)NC(=O)[C@H](Cc2ccc(-c3ccccc3)cc2)NC(=O)[C@H](C(C)C)NC(=O)[C@H](Cc2c[nH]c3ccccc23)NC(=O)[C@H](CC(=O)O)NC(=O)[C@H](Cc2ccc(O)cc2)NC(=O)[C@H](Cc2ccccc2)NC(=O)CSC[C@@H](C(=O)N[C@H](C)C(N)=O)NC(=O)[C@H](CO)NC(=O)[C@H](C(C)C)NC1=O` [Example 1331] ({CH2CO}-FYDWV[Bip]R[NMeA][NMeF]RLVSC[dA]-NH2; thioether N-14): 80 nM.

For the compound `COC[C@@H]1NC(=O)[C@H](C(C)C)NC(=O)[C@H](CC(C)C)NC(=O)[C@H](CC(N)=O)NC(=O)CN(C)C(=O)[C@H](C)N(C)C(=O)[C@H](C(C)C)NC(=O)[C@H](Cc2ccc(-c3ccccc3)cc2)NC(=O)[C@H](CC(C)C)NC(=O)[C@H](Cc2c[nH]c3ccccc23)NC(=O)[C@H](CC(=O)O)NC(=O)[C@H](Cc2ccc(O)cc2)NC(=O)[C@H](Cc2ccccc2)NC(=O)CSC[C@@H](C(=O)N[C@@H](C)C(N)=O)NC1=O` [Example 1123] ({CH2CO}-FYDWL[Bip]V[NMeA][Sar]NLVS(Me)CA-NH2; thioether N-14), the IC50 stood at 440 nM.

For `CC(C)C[C@@H]1NC(=O)[C@H](Cc2c[nH]c3ccccc23)NC(=O)[C@H](CC(=O)O)NC(=O)[C@H](Cc2ccc(O)cc2)NC(=O)[C@H](Cc2ccccc2)NC(=O)CSC[C@@H](C(=O)NC2(C(N)=O)CC2)NC(=O)[C@H](CO)NC(=O)[C@H](C(C)C)NC(=O)[C@H](CC(C)C)NC(=O)[C@H](CC(N)=O)NC(=O)CN(C)C(=O)[C@H](C)N(C)C(=O)[C@H](C(C)C)NC(=O)[C@H](Cc2ccc(-c3ccccc3)cc2)NC1=O` [Example 1056] ({CH2CO}-FYDWL[Bip]V[NMeA][Sar]NLVSC[Ac3c]-NH2; thioether N-14), the IC50 turned out to be 130 nM. Regarding `CC(C)C[C@@H]1NC(=O)[C@H](CCCN)NC(=O)[C@H](Cc2ccccc2)N(C)C(=O)[C@H](C)N(C)C(=O)[C@H](CCCNC(=N)N)NC(=O)[C@H](Cc2ccc(-c3ccccc3)cc2)NC(=O)[C@H](C(C)C)NC(=O)[C@H](Cc2c[nH]c3ccccc23)NC(=O)[C@H](CC(=O)O)NC(=O)[C@H](Cc2ccc(O)cc2)NC(=O)[C@H](CC(N)=O)NC(=O)CSC[C@@H](C(=O)N[C@@H](CCC(=O)O)C(N)=O)NC(=O)[C@H]([C@@H](C)O)NC(=O)[C@H](C(C)C)NC1=O` [Example 1352] ({CH2CO}-NYDWV[Bip]R[NMeA][NMeF][Orn]LVTCE-NH2; thioether N-14), the IC50 came to 420 nM. As to `CC(C)C[C@@H]1NC(=O)[C@H](CCCNC(=N)N)NC(=O)[C@H](Cc2ccccc2)N(C)C(=O)[C@H](C)N(C)C(=O)[C@H](CCCNC(=N)N)NC(=O)[C@H](Cc2ccc(-c3ccccc3)cc2)NC(=O)[C@H](C(C)C)NC(=O)[C@H](Cc2c[nH]c3ccccc23)NC(=O)[C@H](CC(=O)O)NC(=O)[C@H](Cc2ccc(O)cc2)NC(=O)[C@H](Cc2ccccc2)NC(=O)CSC[C@@H](C(=O)NCC(N)=O)NC(=O)[C@H](CO)NC(=O)[C@H](C(C)(C)C)NC1=O` [Example 1143] ({CH2CO}-FYDWV[Bip]R[NMeA][NMeF]RL[Tle]SCG-NH2; thioether N-14), the IC50 was determined as 620 nM. Take `CC(C)C[C@@H]1NC(=O)[C@H](Cc2c[nH]c3ccccc23)NC(=O)[C@H](CC(=O)O)NC(=O)[C@H](Cc2ccc(O)cc2)NC(=O)[C@H](Cc2ccccc2)NC(=O)CSC[C@@H](C(=O)NCC(N)=O)NC(=O)[C@H](CO)NC(=O)[C@H](C(C)C)NC(=O)[C@H](CC(C)C)NC(=O)[C@H](CC(N)=O)NC(=O)[C@H](C)N(C)C(=O)[C@H](C)N(C)C(=O)[C@H](C(C)C)NC(=O)[C@H](Cc2ccc(-c3ccccc3)cc2)NC1=O` [Example 1120] ({CH2CO}-FYDWL[Bip]V[NMeA][NMeA]NLVSCG-NH2; thioether N-14): the IC50 is 430 nM. With `COc1cccc(C[C@@H]2NC(=O)[C@H](CC(=O)O)NC(=O)[C@H](Cc3ccc(C(=O)O)cc3)NC(=O)[C@H](Cc3ccncc3)NC(=O)CSC[C@@H](C(=O)N[C@@H](C)C(N)=O)NC(=O)[C@H](CO)NC(=O)[C@H](C(C)C)NC(=O)[C@H](CC(C)C)NC(=O)[C@H](CC(N)=O)NC(=O)[C@H]3CCCN3C(=O)[C@H](C)N(C)C(=O)[C@H](C(C)C)NC(=O)[C@H](Cc3ccc(-c4ccccc4)cc3)NC(=O)[C@H](CC(C)C)NC2=O)c1` [Example 1387] ({CH2CO}-[4Pal][Phe(4-COOH)]D[Phe(3-OMe)]L[Bip]V[NMeA][dP]NLVSCA-NH2; thioether N-14), the IC50 amounted to 10 nM. Turning to `CC(C)[C@@H]1NC(=O)[C@H](Cc2c[nH]c3ccccc23)NC(=O)[C@H](CC(=O)O)NC(=O)[C@H](Cc2ccncc2)NC(=O)[C@H](CN)NC(=O)CSC[C@@H](C(=O)N[C@@H](C)C(N)=O)NC(=O)[C@H]([C@@H](C)O)NC(=O)[C@H](C(C)C)NC(=O)[C@H](CC2CCCCC2)NC(=O)[C@H](CCN)NC(=O)[C@H](Cc2ccccc2)N(C)C(=O)[C@H](CCCN)NC(=O)[C@H](CCC(=O)O)NC(=O)[C@H](Cc2ccc(-c3ccccc3)cc2)NC1=O` [Example 1439] ({CH2CO}-[Dap][4Pal]DWV[Bip]E[Orn][NMeF][Dab][Cha]VTCA-NH2; thioether N-14), the half-inhibitory concentration (IC50) came to 90 nM.

As to `CC(C)C[C@@H]1NC(=O)[C@H](CCCNC(=N)N)NC(=O)[C@H]2CCCN2C(=O)[C@H](C)N(C)C(=O)[C@H](C(C)C)NC(=O)[C@H](Cc2ccc(-c3ccccc3)cc2)NC(=O)[C@H](C(C)C)NC(=O)[C@H](Cc2c[nH]c3ccccc23)NC(=O)[C@H](CC(=O)O)NC(=O)[C@H](Cc2ccc(O)cc2)NC(=O)[C@H](Cc2ccccc2)NC(=O)CSC[C@@H](C(=O)N[C@@H](C)C(N)=O)NC(=O)[C@H](CO)NC(=O)[C@H](C(C)C)NC1=O` [Example 1075] ({CH2CO}-FYDWV[Bip]V[NMeA][dP]RLVSCA-NH2; thioether N-14), the IC50 stood at 200 nM. Take `CC(C)C[C@@H]1NC(=O)[C@H](Cc2c[nH]c3ccccc23)NC(=O)[C@H](CC(=O)O)NC(=O)[C@H](Cc2ccc(O)cc2)NC(=O)[C@H](Cc2ccccc2)NC(=O)CSC[C@@H](C(=O)NCC(N)=O)NC(=O)[C@H](CO)NC(=O)[C@H](C(C)C)NC(=O)[C@H](CC(C)C)NC(=O)[C@H](CCN)NC(=O)[C@H]2CCCN2C(=O)[C@H](CN)NC(=O)[C@H](C(C)C)NC(=O)[C@H](Cc2ccc(-c3ccccc3)cc2)NC1=O` [Example 1410] ({CH2CO}-FYDWL[Bip]V[Dap][dP][Dab]LVSCG-NH2; thioether N-14): the IC50 amounted to 140 nM. The same measure for `CC(C)C[C@@H]1NC(=O)[C@H](Cc2c[nH]c3ccccc23)NC(=O)[C@H](CC(=O)O)NC(=O)[C@H](Cc2ccc(OCC(=O)O)cc2)NC(=O)[C@H](CC(N)=O)NC(=O)CSC[C@@H](C(=O)N[C@@H](C)C(N)=O)NC(=O)[C@H](CO)NC(=O)[C@H](C(C)C)NC(=O)[C@H](CC(C)C)NC(=O)[C@H](CC(N)=O)NC(=O)[C@H]2CCCN2C(=O)[C@H](C)N(C)C(=O)[C@H](C(C)C)NC(=O)[C@H](Cc2ccc(-c3ccccc3)cc2)NC1=O` [Example 1042] ({CH2CO}-NY(Carboxymethyl)DWL[Bip]V[NMeA][dP]NLVSCA-NH2; thioether N-14): 70 nM.
